Results from patent US20130116286A1, “DROXIDOPA AND PHARMACEUTICAL COMPOSITION THEREOF FOR THE TREATMENT OF NEURALLY MEDIATED HYPOTENSION” (Chelsea Therapeutics, Inc., priority 2007, published 2013).

Tests used:
[1] = tested on: MAO-A than MAO-B; details: cited from earlier work
[2] = tested on: plasma norepinephrine; assay: Plasma norepinephrine concentration after dosing with droxidopa or droxidopa combinations in rats; assay type: in vivo, male Sprague Dawley rats; details: versus vehicle alone, 2 hours post-dosing, rat
Method: The pharmacokinetic properties of droxidopa combinations useful in the methods of the invention were evaluated in male Sprague Dawley rats.
Administration of droxidopa combinations was seen to affect plasma norepinephrine concentration in comparison to administration of droxidopa alone. Formulation 0 indicates administration of the vehicle alone without droxidopa or a droxidopa combination of the invention and provides a baseline comparative of plasma norepinephrine levels in an untreated subject.

For `O=C(NCCN1CCOCC1)c1ccc(Cl)cc1` [moclobemide], the “selectivity for MAO-A than MAO-B” value [1] is given as “approximately three times more selective for MAO-A than MAO-B”.
For `NC(C(=O)O)C(O)c1ccc(O)c(O)c1` (stereo not drawn) [droxidopa, threo-3-(3,4-dihydroxyphenyl)serine], the “increase in plasma norepinephrine concentration” value [2] was roughly 5 fold.
